Results reported in PubChem BioAssay (NCI).
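Where inhibition never reached the appropriate level, the endpoint shown equals the highest concentration tested. Otherwise, values were interpolated linearly from a five-concentration, 48-hour dose response in 96-well plates. At the GI50, growth is halved. TGI marks complete inhibition of growth.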

Legend:
Assay in all cases: NCI anticancer screen, dose series, 48 h
T-47D breast = tested on: T-47D breast
NCI-H460 lung = tested on: NCI-H460 lung
786-0 renal = tested on: 786-0 renal
HS 578T breast = tested on: HS 578T breast
SK-MEL-5 melanoma = tested on: SK-MEL-5 melanoma
UO-31 renal = tested on: UO-31 renal
HOP-62 NSCLC = tested on: HOP-62 NSCLC
SK-OV-3 ovarian = tested on: SK-OV-3 ovarian
SW-620 colon = tested on: SW-620 colon
SNB-75 CNS = tested on: SNB-75 CNS
OVCAR-3 ovarian = tested on: OVCAR-3 ovarian
MOLT-4 leukemia = tested on: MOLT-4 leukemia
MALME-3M melanoma = tested on: MALME-3M melanoma
NCI/ADR-RES ovarian = tested on: NCI/ADR-RES ovarian
MDA-MB-231 breast = tested on: MDA-MB-231 breast
OVCAR-8 ovarian = tested on: OVCAR-8 ovarian
RXF 393 renal = tested on: RXF 393 renal
SK-MEL-28 melanoma = tested on: SK-MEL-28 melanoma
ACHN renal = tested on: ACHN renal
UACC-257 melanoma = tested on: UACC-257 melanoma
NCI-H226 lung = tested on: NCI-H226 lung
TK-10 renal = tested on: TK-10 renal
OVCAR-5 ovarian = tested on: OVCAR-5 ovarian
SN12C renal = tested on: SN12C renal
HT29 colon = tested on: HT29 colon
RPMI-8226 leukemia = tested on: RPMI-8226 leukemia
BT-549 breast = tested on: BT-549 breast
SR leukemia = tested on: SR leukemia
UACC-62 melanoma = tested on: UACC-62 melanoma
CCRF-CEM leukemia = tested on: CCRF-CEM leukemia
MDA-MB-435 = tested on: MDA-MB-435
OVCAR-4 ovarian = tested on: OVCAR-4 ovarian
HCC-2998 colon = tested on: HCC-2998 colon
NCI-H23 lung = tested on: NCI-H23 lung
PC-3 prostate = tested on: PC-3 prostate
SF-268 CNS = tested on: SF-268 CNS
A498 renal = tested on: A498 renal
LOX IMVI melanoma = tested on: LOX IMVI melanoma
COLO 205 colon = tested on: COLO 205 colon
HL-60(TB) leukemia = tested on: HL-60(TB) leukemia
M14 melanoma = tested on: M14 melanoma
MCF7 breast = tested on: MCF7 breast
CAKI-1 renal = tested on: CAKI-1 renal
IGROV1 ovarian = tested on: IGROV1 ovarian
A549 NSCLC = tested on: A549 NSCLC
DU-145 prostate = tested on: DU-145 prostate
SF-539 CNS = tested on: SF-539 CNS
EKVX NSCLC = tested on: EKVX NSCLC
HCT-116 colon = tested on: HCT-116 colon
K-562 leukemia = tested on: K-562 leukemia
SK-MEL-2 melanoma = tested on: SK-MEL-2 melanoma
KM12 colon = tested on: KM12 colon
NCI-H522 lung = tested on: NCI-H522 lung
U251 CNS = tested on: U251 CNS
SF-295 CNS = tested on: SF-295 CNS
SNB-19 CNS = tested on: SNB-19 CNS
HOP-92 NSCLC = tested on: HOP-92 NSCLC
HCT-15 colon = tested on: HCT-15 colon

For `COc1cc(/C=N/n2c(-c3ccccc3)n[nH]c2=O)cc(OC)c1OC`, the TGI (T-47D breast) was > 100 µM, the TGI (NCI-H460 lung) was > 100 µM and the TGI (786-0 renal) was 48.2 µM. For the same compound, the TGI (HS 578T breast) was 20.2 µM, the TGI (SK-MEL-5 melanoma) was > 100 µM and the TGI (UO-31 renal) was > 100 µM. For the same compound, the TGI (HOP-62 NSCLC) was 33.1 µM, the TGI (SK-OV-3 ovarian) was > 25 µM and the TGI (SW-620 colon) was > 100 µM. The TGI (SNB-75 CNS) was > 30.2 µM, the TGI (OVCAR-3 ovarian) was > 37.5 µM and the TGI (MOLT-4 leukemia) was > 100 µM. For the same compound, the TGI (MALME-3M melanoma) was 48.8 µM, the TGI (NCI/ADR-RES ovarian) was 9.96 µM and the TGI (MDA-MB-231 breast) was > 61.8 µM. The TGI (OVCAR-8 ovarian) was > 100 µM, the TGI (RXF 393 renal) was 29.8 µM and the TGI (SK-MEL-28 melanoma) was > 100 µM. The TGI (ACHN renal) was 40.5 µM, the TGI (UACC-257 melanoma) was > 100 µM and the TGI (NCI-H226 lung) was > 100 µM. The TGI (TK-10 renal) was > 65.9 µM, the TGI (OVCAR-5 ovarian) was > 100 µM and the TGI (SN12C renal) was > 100 µM. For the same compound, the TGI (HT29 colon) was > 100 µM, the TGI (RPMI-8226 leukemia) was > 100 µM and the TGI (BT-549 breast) was 18.6 µM. The TGI (SR leukemia) was > 100 µM, the TGI (UACC-62 melanoma) was > 100 µM and the TGI (CCRF-CEM leukemia) was > 100 µM. For the same compound, the TGI (MDA-MB-435) was 6.43 µM, the TGI (OVCAR-4 ovarian) was > 100 µM and the TGI (HCC-2998 colon) was > 100 µM. For the same compound, the TGI (NCI-H23 lung) was > 71.8 µM, the TGI (PC-3 prostate) was > 100 µM and the TGI (SF-268 CNS) was 40.7 µM. For the same compound, the TGI (A498 renal) was 17.4 µM, the TGI (LOX IMVI melanoma) was > 100 µM and the TGI (COLO 205 colon) was > 100 µM. For the same compound, the TGI (HL-60(TB) leukemia) was > 100 µM, the TGI (M14 melanoma) was > 100 µM and the TGI (MCF7 breast) was > 100 µM. The TGI (CAKI-1 renal) was 21.7 µM, the TGI (IGROV1 ovarian) was > 100 µM and the TGI (A549 NSCLC) was > 100 µM. The TGI (DU-145 prostate) was > 76.2 µM, the TGI (SF-539 CNS) was 39.1 µM and the TGI (EKVX NSCLC) was > 100 µM. The TGI (HCT-116 colon) was > 100 µM, the TGI (K-562 leukemia) was > 100 µM and the TGI (SK-MEL-2 melanoma) was > 59 µM. The TGI (KM12 colon) was > 100 µM, the TGI (NCI-H522 lung) was > 58.1 µM and the TGI (U251 CNS) was > 42.3 µM. For the same compound, the TGI (SF-295 CNS) was 18 µM, the TGI (SNB-19 CNS) was > 43.1 µM and the TGI (HOP-92 NSCLC) was > 82.2 µM. The TGI (HCT-15 colon) was > 100 µM.
`N#Cc1c(-c2ccccc2)cc(-c2ccccc2)n(CCCC(=O)NO)c1=O` was tested, and the GI50 (T-47D breast) was 1.83 µM, the TGI (T-47D breast) was 8.34 µM and the GI50 (NCI-H460 lung) was 1.72 µM. It also gave a TGI (NCI-H460 lung) of 8.78 µM, a GI50 (786-0 renal) of 1.6 µM and a TGI (786-0 renal) of 5.85 µM. It also gave a GI50 (HS 578T breast) of 1.81 µM, a TGI (HS 578T breast) of 8.5 µM and a GI50 (SK-MEL-5 melanoma) of 1.89 µM. It also gave a TGI (SK-MEL-5 melanoma) of 4.74 µM, a GI50 (UO-31 renal) of 0.392 µM and a TGI (UO-31 renal) of 2.3 µM. It also gave a GI50 (HOP-62 NSCLC) of 2 µM, a TGI (HOP-62 NSCLC) of 6.98 µM and a GI50 (SK-OV-3 ovarian) of 1.98 µM. It also gave a TGI (SK-OV-3 ovarian) of 5.23 µM, a GI50 (SW-620 colon) of 1.93 µM and a TGI (SW-620 colon) of 12.6 µM. For the same compound, the GI50 (SNB-75 CNS) was 1.24 µM, the TGI (SNB-75 CNS) was 4.85 µM and the GI50 (OVCAR-3 ovarian) was 1.61 µM. It also gave a TGI (OVCAR-3 ovarian) of 4.6 µM, a GI50 (MOLT-4 leukemia) of 1.22 µM and a TGI (MOLT-4 leukemia) of 5.98 µM. It also gave a GI50 (MALME-3M melanoma) of 0.704 µM, a TGI (MALME-3M melanoma) of 11.5 µM and a GI50 (NCI/ADR-RES ovarian) of 0.541 µM. The TGI (NCI/ADR-RES ovarian) was 3.72 µM, the GI50 (MDA-MB-231 breast) was 2.9 µM and the TGI (MDA-MB-231 breast) was 10.4 µM. For the same compound, the GI50 (OVCAR-8 ovarian) was 1.14 µM, the TGI (OVCAR-8 ovarian) was 8.67 µM and the GI50 (RXF 393 renal) was 0.939 µM. For the same compound, the TGI (RXF 393 renal) was 2.74 µM, the GI50 (SK-MEL-28 melanoma) was 2.88 µM and the TGI (SK-MEL-28 melanoma) was 12.7 µM. It also gave a GI50 (ACHN renal) of 0.494 µM, a TGI (ACHN renal) of 3.59 µM and a GI50 (UACC-257 melanoma) of 1.73 µM. The TGI (UACC-257 melanoma) was 7.38 µM, the GI50 (NCI-H226 lung) was 2.24 µM and the TGI (NCI-H226 lung) was 7.41 µM. It also gave a GI50 (TK-10 renal) of 1 µM, a TGI (TK-10 renal) of 11.1 µM and a GI50 (OVCAR-5 ovarian) of 2.3 µM. It also gave a TGI (OVCAR-5 ovarian) of 8.43 µM, a GI50 (SN12C renal) of 2.34 µM and a TGI (SN12C renal) of 10.3 µM. For the same compound, the GI50 (HT29 colon) was 2.58 µM, the TGI (HT29 colon) was 8.58 µM and the GI50 (RPMI-8226 leukemia) was 1.14 µM. The TGI (RPMI-8226 leukemia) was 3.8 µM, the GI50 (BT-549 breast) was 2.77 µM and the TGI (BT-549 breast) was 14.1 µM. It also gave a GI50 (SR leukemia) of 0.361 µM, a TGI (SR leukemia) of 3.65 µM and a GI50 (UACC-62 melanoma) of 1.82 µM. For the same compound, the TGI (UACC-62 melanoma) was 5.63 µM, the GI50 (CCRF-CEM leukemia) was 0.847 µM and the TGI (CCRF-CEM leukemia) was 7.15 µM. The GI50 (MDA-MB-435) was 0.324 µM, the TGI (MDA-MB-435) was 10.7 µM and the GI50 (OVCAR-4 ovarian) was 1.92 µM. It also gave a TGI (OVCAR-4 ovarian) of 11.8 µM, a GI50 (HCC-2998 colon) of 2.17 µM and a TGI (HCC-2998 colon) of 8.66 µM. It also gave a GI50 (NCI-H23 lung) of 2.77 µM, a TGI (NCI-H23 lung) of 9.94 µM and a GI50 (PC-3 prostate) of 2.13 µM. For the same compound, the TGI (PC-3 prostate) was 14.4 µM, the GI50 (SF-268 CNS) was 2.31 µM and the TGI (SF-268 CNS) was 6.72 µM. The GI50 (A498 renal) was 0.788 µM, the TGI (A498 renal) was 2.95 µM and the GI50 (LOX IMVI melanoma) was 1.63 µM. The TGI (LOX IMVI melanoma) was 3.41 µM, the GI50 (COLO 205 colon) was 1.97 µM and the TGI (COLO 205 colon) was 4.97 µM. The GI50 (HL-60(TB) leukemia) was 1.81 µM, the TGI (HL-60(TB) leukemia) was 5.43 µM and the GI50 (M14 melanoma) was 0.898 µM. The TGI (M14 melanoma) was 10.1 µM, the GI50 (MCF7 breast) was 1.7 µM and the TGI (MCF7 breast) was 10.6 µM. For the same compound, the GI50 (CAKI-1 renal) was 0.473 µM, the TGI (CAKI-1 renal) was 2.65 µM and the GI50 (IGROV1 ovarian) was 1.69 µM. For the same compound, the TGI (IGROV1 ovarian) was 4.77 µM, the GI50 (A549 NSCLC) was 2.2 µM and the TGI (A549 NSCLC) was 7.95 µM. It also gave a GI50 (DU-145 prostate) of 2.66 µM, a TGI (DU-145 prostate) of 10.5 µM and a GI50 (SF-539 CNS) of 1.68 µM. The TGI (SF-539 CNS) was 5.03 µM, the GI50 (EKVX NSCLC) was 1.8 µM and the TGI (EKVX NSCLC) was 7.81 µM. The GI50 (HCT-116 colon) was 1.67 µM, the TGI (HCT-116 colon) was 6.7 µM and the GI50 (K-562 leukemia) was 0.729 µM. The TGI (K-562 leukemia) was 12.9 µM, the GI50 (SK-MEL-2 melanoma) was 2.02 µM and the TGI (SK-MEL-2 melanoma) was 10 µM. It also gave a GI50 (KM12 colon) of 1.1 µM, a TGI (KM12 colon) of 11.8 µM and a GI50 (NCI-H522 lung) of 1.33 µM. For the same compound, the TGI (NCI-H522 lung) was 5.89 µM, the GI50 (U251 CNS) was 1.69 µM and the TGI (U251 CNS) was 4.62 µM. It also gave a GI50 (SF-295 CNS) of 2.15 µM, a TGI (SF-295 CNS) of 5.02 µM and a GI50 (SNB-19 CNS) of 2.7 µM. It also gave a TGI (SNB-19 CNS) of 13 µM, a GI50 (HOP-92 NSCLC) of 1.97 µM and a TGI (HOP-92 NSCLC) of 7.53 µM. It also gave a GI50 (HCT-15 colon) of 0.434 µM and a TGI (HCT-15 colon) of 10.7 µM.
